Measured values published in patent US20090170867A1, “TRPV1 ANTAGONISTS INCLUDING SULFONAMIDE SUBSTITUENT AND USES THEREOF” (Shionogi & Co., Ltd., priority 2007, published 2009).

Each compound was assayed against T1, human TRPV1 (Homo sapiens, UniProt Q8NER1) (assay: Capsaicin-based assay, Protocol 2 (TRPV1/CHO cells, Fluo-4, FLIPR)). Details: capsaicin 100 nM final, mean ± SEM, number of trials in parentheses, read-out: TRPV1 IC50 Potency, Human Capsaicin CHO (hCAP-CHO).
T1 construct: using primers designed surrounding the complete hTRPV1 open reading frame; expressed in transfected cells; host or cells: CHO-K1 cells stably transfected with pcDNA3.1(-)-hVR1 plasmid
Type: cell-based
Source text: The TRPV1/CHO cell line was generated as described below. […] The resulting PCR products were purified from agarose gels using Gel Band Purification Kit (GE Healthcare Bioscience) and were subcloned into pCR-Blunt vector (Invitrogen). The cloned cDNA was fully sequenced using a fluorescent dye-terminator reagent (BigDye Terminator ver3.1 Cycle Sequencing Kit, Applied Biosystems) and ABI Prism 3100 genetic analyzer (Applied Biosystems). The pCR-Blunt vector containing the hTRPV1 cDNA was subjected to restriction digestion with EcoRI. The restriction fragment was subcloned into expression vector pcDNA3.1 (-) (Invitrogen) and named pcDNA3.1 (-)-hVR1 plasmid. The sequence of the cDNA encoding TRPV1 is available at GenBank accession number AJ277028. […] The cells were transfected with the pcDNA3.1 (-)-hVR1 plasmid using FuGENE6 (Roche) according to the manufacturer's protocol. 24 hr after transfection, neomycin-resistant cells were selected using 1 mg/mL G418 (Nacalai Tesque). […] The cells expressing hTRPV1 were cultured in the growth medium supplemented with 1 mg/mL G418. […] Subsequently, the cells were loaded by incubation in 0.1 mL of wash buffer containing Fluo-4 at 3 μM final concentration. After 1 hour, the cells were washed twice with 0.2 mL wash buffer and resuspended in 0.1 mL wash buffer. The plates were then transferred to a Fluorescence Imaging Plate Reader (Molecular Devices). Fluorescence intensity was monitored for 15 seconds to establish a baseline. […] The final concentration of the compound was adjusted to range from 100 μM to 1.5625 μM. […] Data were collected over the entire time course and analyzed using Excel and the curve-fitting formula GraphPad Prism.

T1 sequence (Q8NER1 whole entry): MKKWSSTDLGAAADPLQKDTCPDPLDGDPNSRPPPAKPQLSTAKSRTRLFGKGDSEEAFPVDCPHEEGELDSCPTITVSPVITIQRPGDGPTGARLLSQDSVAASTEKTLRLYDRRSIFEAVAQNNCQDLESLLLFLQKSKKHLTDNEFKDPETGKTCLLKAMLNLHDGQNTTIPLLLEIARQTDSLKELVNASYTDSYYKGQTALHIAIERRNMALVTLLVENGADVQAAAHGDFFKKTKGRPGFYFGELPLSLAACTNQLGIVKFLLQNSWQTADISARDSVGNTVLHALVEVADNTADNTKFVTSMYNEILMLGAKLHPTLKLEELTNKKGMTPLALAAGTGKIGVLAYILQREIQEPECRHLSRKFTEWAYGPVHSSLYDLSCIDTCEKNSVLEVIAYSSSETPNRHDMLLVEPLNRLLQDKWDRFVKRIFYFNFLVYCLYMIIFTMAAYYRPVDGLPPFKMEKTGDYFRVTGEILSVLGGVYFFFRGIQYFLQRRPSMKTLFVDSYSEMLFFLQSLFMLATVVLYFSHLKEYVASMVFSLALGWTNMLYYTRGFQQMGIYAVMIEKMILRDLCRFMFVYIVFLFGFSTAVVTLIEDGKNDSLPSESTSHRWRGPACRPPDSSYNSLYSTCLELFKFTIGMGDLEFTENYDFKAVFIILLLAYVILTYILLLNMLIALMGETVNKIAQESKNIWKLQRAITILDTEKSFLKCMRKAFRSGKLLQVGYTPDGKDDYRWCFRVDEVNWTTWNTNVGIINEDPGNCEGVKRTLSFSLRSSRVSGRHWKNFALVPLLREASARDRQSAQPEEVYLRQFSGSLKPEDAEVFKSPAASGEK

First: O=C(Nc1ccc(OC(F)(F)F)c(Cl)c1)N1CC=C(c2ncc([C@H](O)CO)cc2Cl)CC1 [Compound H2]
Second: Cc1cc(NC(=O)N2CC=C(c3ncc([C@@H](O)CO)cc3Cl)CC2)ccc1OC(F)(F)F [Compound R5]
The IC50 of the first is 2.9-fold lower: 118 ± 22.1 nM for the first, 346 nM for the second.

First: O=C(Nc1nc2ccc(Cl)cc2[nH]1)N1CC=C(c2ncc([C@@H](O)CO)cc2Cl)CC1 [Compound Q4]
Second: O=C(Nc1nc2ccc(Cl)cc2[nH]1)N1CC=C(c2ncc([C@H](O)CO)cc2Cl)CC1 [Compound P4]
The IC50 of the first is 1.6-fold higher: 2900 ± 302 nM for the first, 1810 ± 302 nM for the second. The second is the more potent here.

First: CN1CCCc2ccc(NC(=O)N3CC=C(c4ncccc4F)CC3)cc21 [Compound K5]
Second: CC(C)c1cc(NC(=O)N2CC=C(c3ncccc3Cl)CC2)ccc1OC(F)(F)F [Compound 205]
The IC50 of the first is lower: 2750 ± 542 nM for the first, greater than 25000 nM for the second.

First: COc1cc(NC(=O)N2CC=C(c3ncc([C@H](O)CO)cc3Cl)CC2)ccc1C(F)(F)F [Compound A2]
Second: COc1cc(NC(=O)N2CC=C(c3ncc([C@@H](O)CO)cc3Cl)CC2)ccc1C(F)(F)F [Compound X5]
The IC50 of the first is 2.7-fold lower: 84.1 ± 11.2 nM for the first, 230 ± 65.5 nM for the second.

`O=C(Nc1nc2ccc(F)cc2s1)N1CCC(F)(c2ncc([C@@H](O)CO)cc2F)CC1` [Compound N5] and `O=C(Nc1nc2ccc(F)cc2s1)N1CCC(F)(c2ncc([C@H](O)CO)cc2F)CC1` [Compound F5] are within 1.5-fold of each other in IC50: 140 nM for the first, 166 ± 24.7 nM for the second.

First: Cc1cc2nc(NC(=O)N3CC=C(c4ncc([C@H](O)CO)cc4Cl)CC3)sc2cc1C [Compound O5]
Second: O=C(Nc1nc2ccc(F)cc2s1)N1CC=C(c2ncc([C@H](O)CO)cc2Cl)CC1 [Compound R1]
The IC50 of the first is 4.8-fold higher: 244 nM for the first, 51 ± 18.8 nM for the second.

Going from `CC1(C)CCOc2cc(NC(=O)N3CC=C(c4ncc([C@H](O)CO)cc4F)CC3)ccc21` [Compound A4] to `CC(C)(C)c1ccc(NC(=O)N2CC=C(c3ncc([C@@H](O)CO)cc3F)CC2)cc1` [Compound E1], the IC50 falls from 55.1 ± 8.6 nM to 18.5 ± 4.9 nM (3-fold).

First: CC1(c2ncc([C@H](O)CO)cc2F)CCN(C(=O)Nc2ccc(C(F)(F)F)c(Cl)c2)CC1 [Compound Q3]
Second: CC1(c2ncc([C@@H](O)CO)cc2F)CCN(C(=O)Nc2ccc(C(F)(F)F)c(Cl)c2)CC1 [Compound P5]
The IC50 of the first is 3.5-fold lower: 14.3 ± 1.3 nM for the first, 49.5 nM for the second.

Going from `O=C(Nc1nc2ccc(Cl)cc2[nH]1)N1CCC(F)(c2ncc([C@H](O)CO)cc2F)CC1` [Compound R4] to `O=C(Nc1nc2ccc(Cl)cc2[nH]1)N1CCC(F)(c2ncc([C@@H](O)CO)cc2F)CC1` [Compound J5], the IC50 falls from 3280 ± 761 nM to 1880 ± 634 nM (1.7-fold). The second is the more potent here.

`O=C(Nc1ccc(S(=O)(=O)C(F)(F)F)cc1)N1CC=C(c2ncc([C@@H](O)CO)cc2Cl)CC1` [Compound O3] and `O=C(Nc1ccc(S(=O)(=O)C(F)(F)F)cc1)N1CC=C(c2ncc([C@H](O)CO)cc2F)CC1` [Compound P1] are within error of each other in IC50: 46 ± 11.3 nM for the first, 50.5 ± 9.5 nM for the second.

First: O=C(Nc1nc2ccc(F)cc2s1)N1CC=C(c2ncc([C@H](O)CO)cc2F)CC1 [Compound L4]
Second: O=C(Nc1ccc(C(F)(F)F)cn1)N1CC=C(c2ncc([C@H](O)CO)cc2F)CC1 [Compound K4]
The IC50 of the first is 2.1-fold higher: 439 ± 140 nM for the first, 210 ± 19.5 nM for the second. The second is the more potent here.

First: O=C(Nc1ccc(C(F)(F)F)cn1)N1CC=C(c2ncc(CCO)cc2Cl)CC1 [Compound D6]
Second: COCc1cnc(C2=CCN(C(=O)Nc3ccc(C(F)(F)F)cn3)CC2)c(Cl)c1 [Compound H3]
The IC50 of the first is 1.8-fold lower: 621 ± 117 nM for the first, 1110 ± 134 nM for the second.

Compared with `O=C(Nc1nc2ccc(Cl)cc2[nH]1)N1CCC(F)(c2ncc([C@H](O)CO)cc2Cl)CC1` [Compound N4], `O=C(Nc1ccc(C(F)(F)F)c(F)c1)N1CCC(F)(c2ncc([C@@H](O)CO)cc2Cl)CC1` [Compound U5] is 66-fold lower in IC50: 1310 ± 220 nM for the first, 19.9 ± 6.9 nM for the second. The second is the more potent here.

Compared with `CN(C)CC(O)c1cnc(C2=CCN(C(=O)Nc3ccc(C(F)(F)F)cc3)CC2)c(Cl)c1` (single isomer, unassigned) [Compound L5], `O=C(Nc1ccc(C(F)(F)F)cc1)N1CC=C(c2ncc(C(CO)CO)cc2Cl)CC1` [Compound O4, 4-(3-chloro-5-(1,3-dihydroxypropan-2-yl)pyridin-2-yl)-N-(4-(trifluoromethyl)phenyl)-5,6-dihydropyridine-1(2H)-carboxamide] is lower in IC50: greater than 10000 nM for the first, 1520 ± 339 nM for the second. The second is the more potent here.

First: CN(C(=O)N1CC=C(c2ncc([C@H](O)CO)cc2Cl)CC1)c1ccc(C(F)(F)F)cc1 [Compound S4]
Second: O=C(Nc1ccc(Cl)c(C(F)(F)F)c1)N1CC=C(c2ncc([C@H](O)CO)cc2Cl)CC1 [Compound T2]
The IC50 of the first is 31-fold higher: 7030 ± 2060 nM for the first, 226 ± 69.3 nM for the second.

First: O=C(Nc1ccc(S(=O)(=O)N2CCCC2)c(C(F)(F)F)c1)N1CC=C(c2ncc([C@@H](O)CO)cc2Cl)CC1 [Compound C3]
Second: CCCOc1cc(NC(=O)N2CC=C(c3ncc([C@H](O)CO)cc3Cl)CC2)ccc1C(F)(F)F [Compound O1]
The IC50 of the first is 13-fold higher: 541 ± 216 nM for the first, 41.1 ± 17.8 nM for the second. The second is the more potent here.

Compared with `COc1cc(C(F)(F)F)ccc1NC(=O)N1CC=C(c2ncc(CO)cc2Cl)CC1` [Compound J3], `CC(C)S(=O)(=O)c1ccc(NC(=O)N2CC=C(c3ncc(CO)cc3Cl)CC2)cc1C(F)(F)F` [Compound I3] is 2.2-fold lower in IC50: 2940 ± 319 nM for the first, 1360 ± 337 nM for the second.

Going from `O=C(Nc1ccc(C(F)(F)F)cc1)N1CCC(F)(c2ncc(C(O)CO)cc2Cl)CC1` (stereo not shown) [Compound A1] to `O=C(Nc1ccc(C(F)(F)F)cc1)N1CCC(F)(c2ncc([C@@H](O)CO)cc2F)CC1` [Compound X4], the IC50 rises from 7 ± 1.8 nM to 38.4 ± 8 nM (5.5-fold).

`CS(=O)(=O)NCc1cnc(C2=CCN(C(=O)Nc3ccc(C(F)(F)F)cc3)CC2)c(Cl)c1` [Compound M4] and `O=C(Nc1ccc(C(F)(F)F)c(-c2ccccc2)c1)N1CC=C(c2ncc(CO)cc2Cl)CC1` [Compound D3] are within error of each other in IC50: 471 ± 127 nM for the first, 565 ± 58.6 nM for the second.

Going from `O=C(Nc1ccc(C(F)(F)F)cc1)N1CCC(F)(c2ncc(C(O)(CO)CO)cc2Cl)CC1` [Compound T5] to `COc1cc(NC(=O)N2CCC(F)(c3ncc([C@@H](O)CO)cc3Cl)CC2)ccc1C(F)(F)F` [Compound E4], the IC50 falls from 451 ± 92.4 nM to 75.7 ± 12.8 nM (6-fold).

First: COc1cc(NC(=O)N2CCC(F)(c3ncc([C@@H](O)CO)cc3F)CC2)ccc1C(F)(F)F [Compound D5]
Second: COc1cc(NC(=O)N2CCC(F)(c3ncc([C@H](O)CO)cc3Cl)CC2)ccc1C(F)(F)F [Compound V3]
The IC50 of the first is 3.9-fold higher: 133 ± 29.1 nM for the first, 34 ± 9.2 nM for the second.

`Cc1cc(NC(=O)N2CCC(F)(c3ncc([C@H](O)CO)cc3F)CC2)ccc1OC(F)(F)F` [Compound R3] showed an IC50 of 15.5 ± 3.5 nM.
